Measured values as given in the CheMixHub ionic liquid set.

Experiment: xn = mol fraction of the nth substance listed

CCCC[N+](CCCC)(CCCC)Cc1ccccc1.[Cl-] + O=C(O)[C@@H]1CCCN1 + O
electrical conductivity [S/m], 101 kPa
Conditions | 298.15 K | 303.15 K | 308.15 K
x2 = 1.802e-05, x1 = 1.802e-05 | 0.0132 | 0.0149 | 0.0164
x2 = 1.804e-05, x1 = 5.406e-05 | 0.0279 | 0.0297 | 0.0314
x2 = 1.805e-05, x1 = 9.009e-05 | 0.0321 | 0.0338 | 0.0353
x2 = 4.506e-05, x1 = 1.802e-05 | 0.0156 | 0.0164 | 0.0176
x2 = 4.509e-05, x1 = 5.405e-05 | 0.0298 | 0.0313 | 0.0329
x2 = 4.511e-05, x1 = 9.009e-05 | 0.0339 | 0.0356 | 0.0372
x2 = 7.21e-05, x1 = 1.802e-05 | 0.0169 | 0.0183 | 0.0197
x2 = 7.214e-05, x1 = 5.405e-05 | 0.0314 | 0.0327 | 0.0341
x2 = 7.218e-05, x1 = 9.009e-05 | 0.0353 | 0.0367 | 0.0387
x2 = 9.913e-05, x1 = 1.802e-05 | 0.0184 | 0.0206 | 0.0213
x2 = 9.919e-05, x1 = 5.405e-05 | 0.0329 | 0.0335 | 0.0354
x2 = 9.925e-05, x1 = 9.008e-05 | 0.0368 | 0.0383 | 0.0409
x2 = 0.0001262, x1 = 1.802e-05 | 0.0209 | 0.0219 | 0.0229
x2 = 0.0001262, x1 = 5.405e-05 | 0.0337 | 0.0349 | 0.0366
x2 = 0.0001263, x1 = 9.008e-05 | 0.0384 | 0.0398 | 0.0423
x2 = 0.0001532, x1 = 1.802e-05 | 0.0223 | 0.0239 | 0.0251
x2 = 0.0001533, x1 = 5.405e-05 | 0.0345 | 0.0358 | 0.0381
x2 = 0.0001534, x1 = 9.008e-05 | 0.0395 | 0.0416 | 0.0445

CCCC[N+](CCCC)(CCCC)Cc1ccccc1.[Cl-] + O=C([O-])C1=NN(c2ccc(S(=O)(=O)[O-])cc2)C(=O)C1N=Nc1ccc(S(=O)(=O)[O-])cc1.[Na+].[Na+].[Na+] + O
electrical conductivity [S/m], 101.3 kPa, frequency 0.001 MHz
Conditions | 298.15 K | 308.15 K | 318.15 K
x2 = 0, x1 = 1.802e-05 | 0.0104 | 0.0139 | 0.0173
x2 = 0, x1 = 5.406e-05 | 0.0231 | 0.0284 | 0.0345
x2 = 0, x1 = 9.009e-05 | 0.0367 | 0.0457 | 0.0546

viscosity [mPa·s], 101.3 kPa
Conditions | 298.15 K | 308.15 K | 318.15 K
x2 = 0, x1 = 1.802e-05 | 0.906 | 0.775 | 0.643
x2 = 0, x1 = 5.406e-05 | 0.923 | 0.793 | 0.659
x2 = 0, x1 = 9.009e-05 | 0.942 | – | –

CC(C)C[P+](C)(CC(C)C)CC(C)C.Cc1ccc(S(=O)(=O)[O-])cc1 + O=S1(=O)CCCC1
101.33 kPa, x1 = 0.5
Conditions | viscosity [mPa·s]
303.18 K | 216
313.18 K | 122
323.15 K | 69
333.13 K | 44.4
343.09 K | 27.4
353.11 K | 18.5
